# Test results reported in patent US9663496B2, “AMPK-activating heterocyclic compounds and methods for using the same” (Rigel Pharmaceuticals, Inc., priority 2010, dated 2017).
# Molecular target: AMPK
# Assay: AMPK activation, enzyme-linked immunosorbent assay
# Type: biochemical
# Conditions: EC50 for AMPK activation, ELISA
# Method: Compounds were assayed for their ability to activate AMPK using an enzyme-linked immunosorbent assay. Reagents and procedures for measuring AMPK activation are well known and kits for AMPK activation assays are commercially available.
compound,measurement,value
"N#Cc1ccc(CN2CCC(NC(=O)c3ccc(N4CCCC(Oc5ccc(C#N)cc5)C4)cn3)CC2)cc1 (centres unmarked) [Compound 265, N-(1-(4-cyanobenzyl)piperidin-4-yl)-5-(3-(4-cyanophenoxy)piperidin-1-yl)picolinamide]",EC50,1000 to 5000 nM
"N#Cc1ccc(CN2CCC(NC(=O)c3ccc(C(=O)N4CCC(Oc5ccc(S(=O)(=O)C6CC6)cc5)CC4)nc3)CC2)cc1 [Compound 246, N-(1-(4-cyanobenzyl)piperidin-4-yl)-6-(4-(4-(cyclopropylsulfonyl)phenoxy)piperidine-1-carbonyl)nicotinamide]",EC50,< 500 nM
"N#Cc1ccc(CN2CCC(NC(=O)c3ccc(NC4CCN(c5ccc(Cl)cc5)CC4)cn3)CC2)cc1 [Compound 139, 5-(1-(4-chlorophenyl)piperidin-4-ylamino)-N-(1-(4-cyanobenzyl)piperidin-4-yl)picolinamide]",EC50,< 500 nM
"N#Cc1ccc(CN2CCC(NC(=O)c3ccc(C(=O)N4CCC(Oc5ccc(C#N)c(Cl)c5)CC4)cn3)CC2)cc1 [Compound 156, 5-(4-(3-chloro-4-cyanophenoxy)piperidine-1-carbonyl)-N-(1-(4-cyanobenzyl)piperidin-4-yl)picolinamide]",EC50,< 500 nM
"N#Cc1ccc(CN2CCC(NC(=O)c3ccc(C(=O)N4CCC(Oc5cccc(NC(=O)C6CC6)c5)CC4)nc3)CC2)cc1 [Compound 431, N-(1-(4-cyanobenzyl)piperidin-4-yl)-6-(4-(3-(cyclopropanecarboxamido)phenoxy)piperidine-1-carbonyl)nicotinamide]",EC50,500 to 1000 nM
"COc1ccc(C(=O)C2CCN(C(=O)c3ccc(C(=O)N[C@H]4CC[C@@H](Oc5ccc(F)cc5)CC4)cn3)CC2)cc1 [Compound 316, N-((cis)-4-(4-fluorophenoxy)cyclohexyl)-6-(4-(4-methoxybenzoyl)piperidine-1-carbonyl)nicotinamide]",EC50,< 500 nM
"N#Cc1ccc(Oc2ccc(NC(=O)c3ccc(C(=O)N4CCC(Oc5ccc(S(F)(F)(F)(F)F)cc5)CC4)nc3)cn2)cc1 [Compound 497, N-(6-(4-cyanophenoxy)pyridin-3-yl)-6-(4-(4-(pentafluorosulfanyl)phenoxy)piperidine-1-carbonyl)nicotinamide]",EC50,< 500 nM
"N#Cc1ccc(CN2CCC(NC(=O)c3ccc(C(=O)N4CCC(Oc5ccc(S(F)(F)(F)(F)F)cc5)CC4)nc3)CC2)cc1 [Compound 493, N-(1-(4-cyanobenzyl)piperidin-4-yl)-6-(4-(4-(pentafluorosulfanyl)phenoxy)piperidine-1-carbonyl)nicotinamide]",EC50,< 500 nM
"O=C(NC1CCN(Cc2ccc(F)cc2)CC1)c1cccc(C(=O)NC2CCN(Cc3ccc(F)cc3)CC2)n1 [Compound 87, N2,N6-bis(1-(4-fluorobenzyl)piperidin-4-yl)pyridine-2,6-dicarboxamide]",EC50,1000 to 5000 nM
"CS(=O)(=O)Nc1ccc(CN2CCC(NC(=O)c3ccc(C(=O)N4CCC(C(=O)c5ccc(F)cc5F)CC4)nc3)CC2)cc1 [Compound 216, 6-(4-(2,4-difluorobenzoyl)piperidine-1-carbonyl)-N-(1-(4-(methylsulfonamido)benzyl)piperidin-4-yl)nicotinamide]",EC50,> 10000 nM
"COc1ccc(C(=O)C2CCN(C(=O)c3cnc(C(=O)Nc4ccc(Oc5ccc(F)cc5)nc4)cn3)CC2)cc1 [Compound 204, N-(6-(4-fluorophenoxy)pyridin-3-yl)-5-(4-(4-methoxybenzoyl)piperidine-1-carbonyl)pyrazine-2-carboxamide]",EC50,< 500 nM
"N#Cc1ccc(OC2CCN(C(=O)c3ccc(C(=O)NC4CCN(c5ccc(F)cc5)CC4)cn3)CC2)cc1 [Compound 422, 6-(4-(4-cyanophenoxy)piperidine-1-carbonyl)-N-(1-(4-fluorophenyl)piperidin-4-yl)nicotinamide]",EC50,1000 to 5000 nM
"CN(C)C(=O)c1ccc(OC2CCN(C(=O)c3ccc(C(=O)Nc4ccc(Oc5ccc(F)cc5)nc4)nc3)CC2)cc1 [Compound 360, 5-(4-(4-(dimethylcarbamoyl)phenoxy)piperidine-1-carbonyl)-N-(6-(4-fluorophenoxy)pyridin-3-yl)picolinamide]",EC50,< 500 nM
"COc1cccc(CN2CCC(NC(=O)c3ccc(C(=O)N4CCC(S(=O)(=O)c5ccc(F)cc5)CC4)nc3)CC2)c1 [Compound 475, 6-(4-(4-fluorophenylsulfonyl)piperidine-1-carbonyl)-N-(1-(3-methoxybenzyl)piperidin-4-yl)nicotinamide]",EC50,1000 to 5000 nM
"CS(=O)(=O)c1ccc(OC2CCN(C(=O)c3ccc(C(=O)N[C@@H]4CCN(Cc5ccc(OC(F)(F)F)cc5)C[C@H]4F)nc3)CC2)cc1 (relative stereo) [Compound 255, N-((trans)-3-fluoro-1-(4-(trifluoromethoxy)benzyl)piperidin-4-yl)-5-(4-(4-(methylsulfonyl)phenoxy)piperidine-1-carbonyl)picolinamide]",EC50,< 500 nM
"N#Cc1ccc(CN2CCC(NC(=O)c3ccc(C(=O)N4CCN(c5ccc(S(=O)(=O)C(F)(F)F)cc5)CC4)cn3)CC2)cc1 [Compound 257, N-(1-(4-cyanobenzyl)piperidin-4-yl)-5-(4-(4-(trifluoromethylsulfonyl)phenyl)piperazine-1-carbonyl)picolinamide]",EC50,< 500 nM
"N#Cc1ccc(CN2CCC(NC(=O)c3ccc(C(=O)N4CCC(Oc5ccc(S(=O)(=O)C(F)(F)F)cc5)CC4)nc3)CC2)cc1 [Compound 450, N-(1-(4-cyanobenzyl)piperidin-4-yl)-6-(4-(4-(trifluoromethylsulfonyl)phenoxy)piperidine-1-carbonyl)nicotinamide]",EC50,< 500 nM
"CS(=O)(=O)Nc1ccc(OC2CCN(C(=O)c3ccc(C(=O)NC4CCN(Cc5ccc(C#N)cc5)CC4)cn3)CC2)cc1 [Compound 367, N-(1-(4-cyanobenzyl)piperidin-4-yl)-6-(4-(4-(methylsulfonamido)phenoxy)piperidine-1-carbonyl)nicotinamide]",EC50,> 10000 nM
"N#Cc1ccc(OC2CCN(C(=O)c3ccc(C(=O)NC4CCN(Cc5ccc(N6CCOCC6)cc5)CC4)cn3)CC2)cc1 [Compound 337, 6-(4-(4-cyanophenoxy)piperidine-1-carbonyl)-N-(1-(4-morpholinobenzyl)piperidin-4-yl)nicotinamide]",EC50,< 500 nM
"COc1ccc(OC2CCN(C(=O)c3ccc(C(=O)NC4CCN(Cc5ccc(C#N)cc5)CC4)cn3)CC2)c(NC(C)=O)c1 [Compound 383, 6-(4-(2-acetamido-4-methoxyphenoxy)piperidine-1-carbonyl)-N-(1-(4-cyanobenzyl)piperidin-4-yl)nicotinamide]",EC50,> 10000 nM
"N#Cc1ccc(CN2CCC(NC(=O)c3ccc(C(=O)N4CCN(c5ccc(C#N)cc5)CC4)cn3)CC2)cc1 [Compound 340, N-(1-(4-cyanobenzyl)piperidin-4-yl)-5-(4-(4-cyanophenyl)piperazine-1-carbonyl)picolinamide]",EC50,< 500 nM
"N#Cc1ccc(CC2CCC(NC(=O)c3cccc(C(=O)N4CCN(Cc5ccc(F)cc5)CC4)n3)CC2)cc1 (centres unmarked) [Compound 99, N-(4-(4-cyanobenzyl)cyclohexyl)-6-(4-(4-fluorobenzyl)piperazine-1-carbonyl)picolinamide]",EC50,5000 to 10000 nM
"N#Cc1ccc(O[C@H]2CC[C@@H](NC(=O)c3ccc(C(=O)N4CCC(Oc5ccc(F)cc5)CC4)cn3)CC2)cc1 [Compound 167, N-((cis)-4-(4-cyanophenoxy)cyclohexyl)-5-(4-(4-fluorophenoxy)piperidine-1-carbonyl)picolinamide]",EC50,< 500 nM
"N#Cc1ccc(OC2CCN(C(=O)c3ccc(C(=O)NC4CCN(Cc5nccs5)CC4)cn3)CC2)cc1 [Compound 356, 6-(4-(4-cyanophenoxy)piperidine-1-carbonyl)-N-(1-(thiazol-2-ylmethyl)piperidin-4-yl)nicotinamide]",EC50,< 500 nM
"N#Cc1ccc(OC2CCN(C(=O)c3ccc(C(=O)NC4CCNCC4)cn3)CC2)cc1 [Compound 335, 6-(4-(4-cyanophenoxy)piperidine-1-carbonyl)-N-(piperidin-4-yl)nicotinamide]",EC50,> 10000 nM
"COc1ccc(C(=O)C2CCN(C(=O)c3ccc(C(=O)NC4CCN(Cc5ccc(NC(=O)CCOCCOCCOCCNC(=O)CCCC[C@@H]6SC[C@@H]7NC(=O)N[C@@H]76)cc5)CC4)nc3)CC2)cc1 [Compound 403, 5-(4-(4-methoxybenzoyl)piperidine-1-carbonyl)-N-(1-(4-(14-oxo-18-((3aS,4S,6aR)-2-oxohexahydro-1H-thieno[3,4-d]imidazol-4-yl)-4,7,10-trioxa-13-azaoctadecanamido)benzyl)piperidin-4-yl)picolinamide]",EC50,> 10000 nM
"COc1ccc(CN2CCC(NC(=O)c3ccc(C(=O)N4CCC(Oc5cccc(NC(C)=O)c5)CC4)nc3)CC2)cc1 [Compound 412, 6-(4-(3-acetamidophenoxy)piperidine-1-carbonyl)-N-(1-(4-methoxybenzyl)piperidin-4-yl)nicotinamide]",EC50,1000 to 5000 nM
"N#Cc1ccc(CN2CCC(NC(=O)c3ccc(C(=O)N4CCC(Cc5ccc(F)cc5)CC4)cn3)CC2)cc1 [Compound 130, N-(1-(4-cyanobenzyl)piperidin-4-yl)-5-(4-(4-fluorobenzyl)piperidine-1-carbonyl)picolinamide]",EC50,< 500 nM
"N#Cc1ccc(CN2CCC(NC(=O)c3ccc(C(=O)N4CCC(Oc5ccc(C#N)cc5)CC4)cn3)CC2)cc1 [Compound 135, N-(1-(4-cyanobenzyl)piperidin-4-yl)-5-(4-(4-cyanophenoxy)piperidine-1-carbonyl)picolinamide]",EC50,< 500 nM
"CC(=O)c1ccc(Oc2ccc(NC(=O)c3ccc(C(=O)N4CCC(Oc5ccc(S(C)(=O)=O)cc5)CC4)cn3)cn2)cc1 [Compound 259, N-(6-(4-acetylphenoxy)pyridin-3-yl)-5-(4-(4-(methylsulfonyl)phenoxy)piperidine-1-carbonyl)picolinamide]",EC50,< 500 nM
"O=C(c1cccc(C(=O)N2CCN(c3ccccc3)CC2)n1)N1CCN(Cc2ccc(F)cc2)CC1 [Compound 94, (4-(4-fluorobenzyl)piperazin-1-yl)(6-(4-phenylpiperazine-1-carbonyl)pyridin-2-yl)methanone]",EC50,> 10000 nM
"CC(C)(C)OC(=O)N1CCC(NC(=O)c2ccc(C(=O)N3CCC(Oc4ccc(C#N)cc4)CC3)nc2)CC1 [Compound 333, tert-butyl 4-(6-(4-(4-cyanophenoxy)piperidine-1-carbonyl)nicotinamido)piperidine-1-carboxylate]",EC50,< 500 nM
